Source: paper PMC10133251, “An intrinsic purine metabolite AICAR blocks lung tumour growth by targeting oncoprotein mucin 1” (British Journal of Cancer, 2023)

How the values were obtained:
NR8383 = experiment: in vitro; parameters: species or system panel of lung tumour and stromal cell lines; CellTiter-Glo luminescent cell viability, 2D monolayer, 3000 cells per well in 96-well plate, vehicle-normalised; conditions: viability, 72 h; given as EC50; inhibitor
Description: (§1) For 2D monolayer cell cultures, 3000 cells were plated into each well of a white 96-well plate in three replicates. After attachment, the cells were treated with AICAR, VX-509, osimertinib, and ABT-702 alone or in combinations for 72 h. The cell viability was measured at the treatment endpoint using the CellTiter-Glo® luminescent cell viability assay kit (Promega, Cat #G7570) according to the manufacturer’s instructions. The luminescent signal was recorded as relative light units (RLU). For 3D organoid cultures, the cell viability was measured using CellTiter-Glo 3D® Cell Viability Assay (Promega, Cat #G9681) according to the manufacturer’s protocol. The relative cell viability treated with the vehicle was normalised as 1. To explore the effects of AICAR treatment on lung cancer cell lines, we performed a cell viability assay using a panel of lung cancer cell lines based on the status of EGFR mutations (Table S1). […] To understand whether AICAR’s effects are dependent upon EGFR mutations, we tested drug response in another panel of lung cancer cells with wild-type EGFR, including H358, H23, H441, A549, and H69 (Fig. 1b). […] To examine if there was any toxicity in stromal cells, we measured AICAR treatment response in a panel of primary lung stromal cell lines, including CCD-13Lu (fibroblasts), HULEC-5A (endothelial cells), and NR8383 (macrophages). […] The cell viability was measured three days after treatment. […] The cell viability was measured three days after treatment. […] The cell viability was measured three days after treatment. […] N = 3 replicates. d Quantification of EC50 in EGFR mutant, wild-type, and non-malignant stromal lung cells. […] After treatment, the apoptotic cells were quantified by flow cytometry analysis of cells stained with Annexin-V-APC and 7AAD. […] After treatment, the apoptotic cells were quantified by flow cytometry analysis of cells stained with Annexin-V-APC and 7AAD. N = 4 replicates. i, j Western blotting and relative quantification for expression levels of γ-H2AX (S139), H2AX, p-p53 (S33), p53, and […]

HULEC-5A = experiment: in vitro; parameters: species or system panel of lung tumour and stromal cell lines; CellTiter-Glo luminescent cell viability, 2D monolayer, 3000 cells per well in 96-well plate, vehicle-normalised; conditions: viability, 72 h; given as EC50; inhibitor
Description: as §1

in vitro = experiment: in vitro; parameters: species or system panel of lung tumour and stromal cell lines; CellTiter-Glo luminescent cell viability, 2D monolayer, 3000 cells per well in 96-well plate, vehicle-normalised; conditions: panel of lung tumour and stromal cell lines, EC50 (mM), viability, given as EC50
Description: as §1

MUC1-CT = target: T1, MUC1-CT (Homo sapiens, UniProt P15941); experiment: cellular thermal shift assay, western blot; assay type: cell-based; conditions: intact H1975 cells, 1 mM AICAR for 15 min, heated 3 min at 37-55 °C; stabilisation shown as curve only, no Tm; intracellular phosphorylation to ZMP possible
T1 construct: endogenous C-terminal beta subunit (MUC1-CT) of the cleaved MUC1 precursor in intact H1975 cells; detected by western blot with anti-MUC1-CT
T1 sequence (P15941 1098-1255 limits assumed): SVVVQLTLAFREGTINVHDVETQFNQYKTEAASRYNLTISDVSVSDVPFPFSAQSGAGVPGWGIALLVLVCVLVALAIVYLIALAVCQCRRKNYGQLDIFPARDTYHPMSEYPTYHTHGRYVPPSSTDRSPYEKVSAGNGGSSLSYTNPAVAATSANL

H358 = experiment: cells; parameters: species or system panel of lung tumour and stromal cell lines; CellTiter-Glo luminescent cell viability, 2D monolayer, 3000 cells per well in 96-well plate, vehicle-normalised; conditions: Homo sapiens, NCI-H358; viability, 72 h
Description: (§2) For 2D monolayer cell cultures, 3000 cells were plated into each well of a white 96-well plate in three replicates. After attachment, the cells were treated with AICAR, VX-509, osimertinib, and ABT-702 alone or in combinations for 72 h. The cell viability was measured at the treatment endpoint using the CellTiter-Glo® luminescent cell viability assay kit (Promega, Cat #G7570) according to the manufacturer’s instructions. The luminescent signal was recorded as relative light units (RLU). For 3D organoid cultures, the cell viability was measured using CellTiter-Glo 3D® Cell Viability Assay (Promega, Cat #G9681) according to the manufacturer’s protocol. The relative cell viability treated with the vehicle was normalised as 1. To explore the effects of AICAR treatment on lung cancer cell lines, we performed a cell viability assay using a panel of lung cancer cell lines based on the status of EGFR mutations (Table S1). […] To understand whether AICAR’s effects are dependent upon EGFR mutations, we tested drug response in another panel of lung cancer cells with wild-type EGFR, including H358, H23, H441, A549, and H69 (Fig. 1b). The average EC50 of tested EGFR wild-type cell lines (1.31 ± 0.18 mM) was higher than that of EGFR-mutant cell lines upon AICAR treatment (p < 0.05). To examine if there was any toxicity in stromal cells, we measured AICAR treatment response in a panel of primary lung stromal cell lines, including CCD-13Lu (fibroblasts), HULEC-5A (endothelial cells), and NR8383 (macrophages). […] 3000 cells (H3255, PC9-ER, HCC827, H1650, PC9, and H1975) were plated in a 96-well plate and treated with increasing doses of AICAR (0–10 mM). The cell viability was measured three days after treatment. Values were normalised to a vehicle-treated control group. N = 3 replicates. b Cell viability assay of AICAR in EGFR wild-type lung adenocarcinoma and small cell lung cancer cell lines. 3000 cells (A549, H23, H69, H358, and H441) were plated in a 96-well plate and treated with increasing doses of AICAR (0–10 mM). The cell viability was measured three days after treatment. Values were normalised to a vehicle-treated control group. N = 3 replicates. c Cell viability assay of AICAR in multiple types of primary lung stromal cells. 3000 cells (macrophages NR8383, endothelial cells HULEC-5A, and fibroblasts CCD-13Lu) were plated in a 96-well plate and treated with increasing doses of AICAR (0–10 mM). The cell viability was measured three days after treatment. Values were normalised to a vehicle-treated control group. N = 3 replicates. d Quantification of EC50 in EGFR mutant, wild-type, and non-malignant stromal lung cells. N = 3 replicates. e Flow cytometry analysis for time-dependent apoptosis in EGFR-mutant H1975 cells treated with AICAR. H1975 cells were plated in a 24-well plate and treated with AICAR (1 mM) for 0, 4, 7, and 16 h. After treatment, the apoptotic cells were quantified by flow cytometry analysis of cells stained with Annexin-V-APC and 7AAD. N = 4 replicates. f–h Flow cytometry analysis for apoptosis in multiple cell lines treated with AICAR. EGFR-mutant PC9 (f) and EGFR wild-type A549 (g) and H23 (h) cells were plated in a 24-well plate and treated with AICAR (1 mM) and vehicle control for 7 h. After treatment, the apoptotic cells were quantified by flow cytometry analysis of cells stained with Annexin-V-APC and 7AAD. N = 4 replicates. i, j Western blotting and relative quantification for expression levels of γ-H2AX (S139), H2AX, p-p53 (S33), p53, and […]

PC9-ER = experiment: cells; parameters: species or system panel of lung tumour and stromal cell lines; CellTiter-Glo luminescent cell viability, 2D monolayer, 3000 cells per well in 96-well plate, vehicle-normalised; conditions: Homo sapiens, PC-9/ER; viability, 72 h
Description: as §2

H23 = experiment: cells; parameters: species or system panel of lung tumour and stromal cell lines; CellTiter-Glo luminescent cell viability, 2D monolayer, 3000 cells per well in 96-well plate, vehicle-normalised; conditions: Homo sapiens, NCI-H23; viability, 72 h
Description: as §2

HCC827 = experiment: cells; parameters: species or system panel of lung tumour and stromal cell lines; CellTiter-Glo luminescent cell viability, 2D monolayer, 3000 cells per well in 96-well plate, vehicle-normalised; conditions: Homo sapiens, HCC827; viability, 72 h
Description: as §2

H441 = experiment: cells; parameters: species or system panel of lung tumour and stromal cell lines; CellTiter-Glo luminescent cell viability, 2D monolayer, 3000 cells per well in 96-well plate, vehicle-normalised; conditions: Homo sapiens, NCI-H441; viability, 72 h
Description: as §2

PC9 = experiment: cells; parameters: species or system panel of lung tumour and stromal cell lines; CellTiter-Glo luminescent cell viability, 2D monolayer, 3000 cells per well in 96-well plate, vehicle-normalised; conditions: Homo sapiens, PC-9; viability, 72 h
Description: as §2

H1650 = experiment: cells; parameters: species or system panel of lung tumour and stromal cell lines; CellTiter-Glo luminescent cell viability, 2D monolayer, 3000 cells per well in 96-well plate, vehicle-normalised; conditions: Homo sapiens, NCI-H1650; viability, 72 h
Description: as §2

H69 = experiment: cells; parameters: species or system panel of lung tumour and stromal cell lines; CellTiter-Glo luminescent cell viability, 2D monolayer, 3000 cells per well in 96-well plate, vehicle-normalised; conditions: Homo sapiens, NCI-H69; viability, 72 h
Description: as §2

H3255 = experiment: cells; parameters: species or system panel of lung tumour and stromal cell lines; CellTiter-Glo luminescent cell viability, 2D monolayer, 3000 cells per well in 96-well plate, vehicle-normalised; conditions: Homo sapiens, NCI-H3255; viability, 72 h
Description: as §2

A549 = experiment: cells; parameters: species or system panel of lung tumour and stromal cell lines; CellTiter-Glo luminescent cell viability, 2D monolayer, 3000 cells per well in 96-well plate, vehicle-normalised; conditions: Homo sapiens, A549; viability, 72 h
Description: as §2

H1975 = experiment: cells; parameters: species or system panel of lung tumour and stromal cell lines; CellTiter-Glo luminescent cell viability, 2D monolayer, 3000 cells per well in 96-well plate, vehicle-normalised; conditions: Homo sapiens, NCI-H1975; viability, 72 h
Description: as §2

NC(=O)c1ncn([C@@H]2O[C@H](CO)[C@@H](O)[C@H]2O)c1N [AICAR]
CC50 (NR8383): 1110 µM | CC50 (HULEC-5A): 1450 µM | CC50 at 72 h (in vitro): 1.03 mM | thermal stability (MUC1-CT): AICAR incubation in H1975 cells significantly increased protein stability in MUC1-CT than vehicle-treated groups | EC50 (H358): 1280 µM | EC50 (PC9-ER): 410 µM | EC50 (H23): 1610 µM | EC50 (HCC827): 880 µM | EC50 (H441): 640 µM | EC50 (PC9): 300 µM | EC50 (H1650): 420 µM | EC50 (H69): 1440 µM | EC50 (H3255): 320 µM | EC50 (A549): 1600 µM | EC50 (H1975): 298 µM
